Reference: patent US8084471B2, “Proteomimetic compounds as inhibitors of the interaction of nuclear receptor with coactivator peptides” (Yale University, priority 2006, dated 2011)
pKd, pKi: −log10 of the molar value. One block for each compound: values may come before it. Ends that are not written are not given here.

Assays:
ERα [1] = target: T1, ERα (Homo sapiens, UniProt P03372); experiment: Fluorescence polarization assay: displacement of rhodamine-labeled peptide D22 from estradiol-activated ER; type: binding; set-up: purchased Invitrogen; conditions: for pKi: ERα 75 nM, 17β-estradiol 2 μM, D22 1 nM; for affinity (in words): FP assay; for fluorescence polarization titration curve: FIG. 2
T1 sequence (P03372 1-595): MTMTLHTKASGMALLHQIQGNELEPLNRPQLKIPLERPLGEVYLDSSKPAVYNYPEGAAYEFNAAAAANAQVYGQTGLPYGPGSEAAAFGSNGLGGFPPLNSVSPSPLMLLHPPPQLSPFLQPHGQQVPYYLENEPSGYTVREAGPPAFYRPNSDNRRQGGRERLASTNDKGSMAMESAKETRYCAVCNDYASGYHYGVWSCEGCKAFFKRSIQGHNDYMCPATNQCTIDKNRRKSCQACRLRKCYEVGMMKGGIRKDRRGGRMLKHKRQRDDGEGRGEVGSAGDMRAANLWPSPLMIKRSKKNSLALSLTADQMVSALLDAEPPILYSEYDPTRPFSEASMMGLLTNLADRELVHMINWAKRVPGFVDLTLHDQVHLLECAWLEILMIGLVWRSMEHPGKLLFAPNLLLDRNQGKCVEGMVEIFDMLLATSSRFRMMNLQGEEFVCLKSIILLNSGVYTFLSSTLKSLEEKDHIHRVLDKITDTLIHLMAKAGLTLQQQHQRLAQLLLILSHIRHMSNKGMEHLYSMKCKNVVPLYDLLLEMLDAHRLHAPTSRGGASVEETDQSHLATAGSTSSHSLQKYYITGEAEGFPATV

ERα [2] = target: T1, ERα; set-up: purchased Invitrogen; conditions: used to obtain Ki from IC50; D22 at 1 nM; read-out: Kd of the fluorescent peptide; cited from earlier work
ERα [3] = target: T1, ERα; experiment: Competitive radioligand assay with [3H]estradiol for the estradiol binding site; set-up: purchased MDS Pharma Services (contract assay); host or cells: Sf9 insect cells; conditions: ERα from human recombinant insect Sf9 cells
Procedure: Inhibition of coactivator binding by a small molecule involves either direct competition with the helical peptide for the ER surface or binding of the small molecule to the ligand binding site as an antagonist, deactivating the ER and preventing coactivator recruitment. To rule out the latter mechanism, a competitive radioligand assay with [^3H]estradiol was carried out to specifically measure the affinity of 3 for the estradiol binding site. According to the radioligand assay, 3 binds to this site with an affinity <0.001% the affinity of 17β-estradiol. […] From this it was concluded that the helix mimetics prevent the coactivator association through direct competition for its binding site on the ER surface. […]
Procedure: Ammonium sulfate precipitates of the hER were dissolved in TDEE buffer containing 100 mM KCl, 0.5 mM leupeptin, and 10% glycerol. […] The hER was incubated with a varied concentration of [^3H]estradiol, and the nonspecific binding was measured by a parallel incubation with [^3H]estradiol plus a 300-fold excess of estradiol for 15 h at 4° C. At the completion of the incubation, 50 μL of each mixture was removed and the total [^3H]estradiol concentration determined. […] The hydroxylapatite pellets were suspended in 1 mL of ethanol and counted in 5 mL of scintillation fluid, and the receptor-bound [^3H]estradiol was measured. […]

pKi (ERα [1]; standard deviation in brackets): 5.38
Compound: CC(C)Cc1cc(O)c(=O)n(CCc2ccc3ccccc3c2)c1-c1ccnc(Cc2ccccc2)c1 [Compound 7, 6-(2-Benzyl-4-pyridyl)-3-hydroxy-5-isobutyl-1-(2-(2-naphthyl)ethyl)-1H-pyridin-2-one]

Compound: Rho-LPYEGSLLLKLLRAPVEEV-COOH [Compound D22, rhodamine-labeled peptide which contains a single LXXLL motif, FP probe]
pKd (ERα [2]): 7.51

pKi (ERα [1]; standard deviation in brackets): < 4.30 | affinity (in words) (ERα [1]): weak affinity
Compound: CC(C)Cc1cc(-c2c(CC(C)C)cc(O)c(=O)n2CCC(C)(C)C)ccn1 [Compound 4, 3-hydroxy-5-isobutyl-6-(2-isobutyl-4-pyridyl)-1-(3,3-dimethylbutyl)1H-pyridin-2-one]

pKi (ERα [1]; standard deviation in brackets): 6.02 | pKi (ERα [1]; Table 1 left column): 6.00
Compound: CLTERHKILHRLLQE [SRC-1 NR II, CLTERHKILHRLLQE, reference compound]

pKi (ERα [1]; standard deviation in brackets): 5.19
Compound: CC(C)Cc1cc(O)c(=O)n(CCc2ccccc2)c1-c1ccnc(Cc2ccccc2)c1 [Compound 6, 6-(2-Benzyl-4-pyridyl)-3-hydroxy-5-isobutyl-1-(2-phenylethyl)-1H-pyridin-2-one]

pKi (ERα [1]; standard deviation in brackets): 4.80
Compound: CC(C)CCn1c(-c2ccnc(CC(C)C)c2)c(CC(C)C)cc(O)c1=O [Compound 2, 3-Hydroxy-5-isobutyl-6-(2-isobutyl-4-pyridyl)-1-(3-methylbutyl)-1H-pyridin-2-one]

fluorescence polarization titration curve (ERα [1]): slopes rapidly downward | pKi (ERα [1]; Table 1 left column): 4.47 | decrease in affinity (ERα [1]; relative to compound 2): 2 fold
Compound: CC(C)Cc1cc(-c2c(CC(C)C)cc(O)c(=O)n2CC(C)C)ccn1 [Compound 1, 3-Hydroxy-1,5-diisobutyl-6-(2-isobutyl-4-pyridyl)-1H-pyridin-2-one]

pKi (ERα [1]; standard deviation in brackets): 5.03 | affinity for the estradiol binding site relative to 17β-estradiol (ERα [3]): < 0.001%
Compound: CC(C)Cc1cc(-c2c(CC(C)C)cc(O)c(=O)n2CCc2ccccc2)ccn1 [Compound 3, 3-Hydroxy-5-isobutyl-6-(2-isobutyl-4-pyridyl)-1-(2-phenylethyl)-1H-pyridin-2-one]

pKi (ERα [1]; standard deviation in brackets): < 4.30 | fluorescence polarization titration curve (ERα [1]): about 0.95 | affinity (in words) (ERα [1]): weak affinity
Compound: CC(C)Cc1cc(O)c(=O)n(CCC(C)(C)C)c1-c1ccnc(C(C)(C)C)c1 [Compound 5, 6-(2-tert-Butyl-4-pyridyl)-3-hydroxy-5-isobutyl-1-(3,3-dimethylbutyl)1H-pyridin-2-one]
